Laboratory results: ChEMBL document CHEMBL1143147, “A novel sesquiterpenoid dimer parviflorene F induces apoptosis by up-regulating the expression of TRAIL-R2 and a caspase-dependent mechanism” (Bioorg Med Chem, 2008)
Converted amounts (≈) assume the structure as drawn. The source made the active and inactive calls. The calls are words filed in the database; no cut-off is given here.

What was measured:
DLD-1 [1] = assay: Upregulation of TRAIL-R2 protein in human DLD1/TRAIL-R cells at 4 ug/ml by Western blot; assay type: functional, cell-based
HeLa [2] = assay: Cell viability in human HeLa cells at 4 ug/ml after 24 hrs; assay type: functional
DLD-1 [3] = assay: Cytotoxicity against human DLD1/TRAIL-R cells after 24 hrs; assay type: functional, cell-based; conditions: DLD-1, 24 h
HeLa [4] = assay: Cytotoxicity against human HeLa cells expressed as ratio of Cyr61 gene expression in cells treated with drug at 5 ug/ml over control after 24 hrs; assay type: functional
HeLa [5] = assay: Increase in AF016266 mRNA expression in human HeLa cells by RTPCR; assay type: functional
HeLa [6] = assay: Induction of apoptosis in human HeLa cells assessed as accumulation at S phase after 6 hrs by flow cytometry; assay type: functional
HeLa [7] = assay: Induction of apoptosis in human HeLa cells assessed as accumulation at G1 phase after 6 hrs by flow cytometry; assay type: functional
DLD-1 [8] = assay: Upregulation of TRAIL-R2 protein in human DLD1/TRAIL-R cells at 8 ug/ml by Western blot; assay type: functional, cell-based
DLD-1 [9] = assay: Cell viability in human DLD1/TRAIL-R cells at 8 ug/ml after 24 hrs in presence of TRAIL; assay type: functional
HeLa [10] = assay: Increase in TRAIL-R2 protein level in human HeLa cells at 4 ug/ml after 24 hrs by Western blot; assay type: functional, cell-based
HeLa [11] = assay: Induction of apoptosis in human HeLa cells assessed as early apoptotic cells at 4 ug/ml after 12 hrs by annexin V-FITC/PI staining; assay type: functional
HeLa [12] = assay: Cytotoxicity against human HeLa cells after 24 hrs by FMCA; assay type: functional, cell-based
HeLa [13] = assay: Induction of apoptosis in human HeLa cells assessed as cleavage of caspase 8 at 4 ug/ml after 12 hrs by Western blot; assay type: functional, cell-based
HeLa [14] = assay: Induction of apoptosis in human HeLa cells assessed as late apoptotic cells at 4 ug/ml after 24 hrs by annexin V-FITC and PI staining; assay type: functional
HeLa [15] = assay: Increase in TRAIL-R2 protein level in human HeLa cells at 8 ug/ml after 24 hrs by Western blot; assay type: functional, cell-based
HeLa [16] = assay: Cytotoxicity against human HeLa cells expressed as ratio of TRAIL-R2 gene expression in cells treated with drug at 5 ug/ml over control after 24 hrs; assay type: functional
HeLa [17] = assay: Induction of apoptosis in human HeLa cells assessed as early apoptotic cells at 4 ug/ml after 24 hrs by annexin V-FITC/PI staining; assay type: functional
HeLa [18] = assay: Induction of apoptosis in human HeLa cells assessed as accumulation at G1 phase after 12 hrs by flow cytometry; assay type: functional
HeLa [19] = assay: Induction of apoptosis in human HeLa cells assessed as accumulation at subG1 phase after 24 hrs by flow cytometry; assay type: functional
HeLa [20] = assay: Cytotoxicity against human HeLa cells expressed as ratio of MRCKalpha gene expression in cells treated with drug at 5 ug/ml over control after 24 hrs; assay type: functional
HeLa [21] = assay: Induction of apoptosis in human HeLa cells assessed as accumulation at G2/M phase after 24 hrs by flow cytometry; assay type: functional
HeLa [22] = assay: Induction of apoptosis in human HeLa cells assessed as accumulation at S phase after 24 hrs by flow cytometry; assay type: functional
HeLa [23] = assay: Cell viability in human HeLa cells at 4 ug/ml after 24 hrs in presence of TRAIL; assay type: functional
HeLa [24] = assay: Reversal of drug-induced apoptosis in human HeLa cells expressing TRAIL-R2/Fc chimera protein after 12 hrs; assay type: functional, cell-based
DLD-1 [25] = assay: Cell viability in human DLD1/TRAIL-R cells at 8 ug/ml after 24 hrs; assay type: functional
HeLa [26] = assay: Induction of apoptosis in human HeLa cells assessed as cleavage of caspase 8 at 4 ug/ml after 6 hrs by Western blot; assay type: functional, cell-based
HeLa [27] = assay: Induction of apoptosis in human HeLa cells assessed as accumulation at G2/M phase after 12 hrs by flow cytometry; assay type: functional
HeLa [28] = assay: Increase in NM_003607 mRNA expression in human HeLa cells by RTPCR; assay type: functional, cell-based
HeLa [29] = assay: Reversal of drug-induced apoptosis in human HeLa cells in presence of caspase 8 inhibitor z-IETD after 12 hrs by Annexin-PI dual staining; assay type: functional
HeLa [30] = assay: Induction of apoptosis in human HeLa cells assessed as accumulation at G2/M phase after 6 hrs by flow cytometry; assay type: functional
HeLa [31] = assay: Induction of apoptosis in human HeLa cells assessed as caspase 3 activity at 4 ug/ml; assay type: functional, cell-based; conditions: TDE = time-dependent effect
HeLa [32] = assay: Induction of apoptosis in human HeLa cells assessed as accumulation at G1 phase after 24 hrs by flow cytometry; assay type: functional
HeLa [33] = assay: Induction of apoptosis in human HeLa cells assessed as accumulation at subG1 phase after 6 hrs by flow cytometry; assay type: functional
HeLa [34] = assay: Induction of apoptosis in human HeLa cells assessed as accumulation at S phase after 12 hrs by flow cytometry; assay type: functional
HeLa [35] = assay: Reversal of drug-induced apoptosis in human HeLa cells ain presence of caspase 9 inhibitor z-LEHD after 12 hrs by Annexin-PI dual staining; assay type: functional
HeLa [36] = assay: Cytotoxicity against human HeLa cells expressed as ratio of RHAMM gene expression in cells treated with drug at 5 ug/ml over control after 24 hrs; assay type: functional
HeLa [37] = assay: Induction of apoptosis in human HeLa cells assessed as accumulation at subG1 phase after 12 hrs by flow cytometry; assay type: functional

Compound: Cc1cc(O)c2c(c1)[C@H](C(C)C)Cc1cc3c(cc1-2)[C@@H](O)[C@@H](C(C)C)c1cc(C)cc(O)c1-3 [PARVIFLORENE F]
- Activity (DLD-1 [1]): Active
- Activity (HeLa [2]): 44%
- IC50 (DLD-1 [3]): 9.2 µg/mL (≈ 20.8 µM)
- Ratio (HeLa [4]): 0.61
- Fold change (HeLa [5]): 4.9
- Activity (HeLa [6]): 17.3%
- Activity (HeLa [7]): 56.1%
- Activity (DLD-1 [8]): Active
- Activity (DLD-1 [9]): 20%
- Activity (HeLa [10]): Active
- Activity (HeLa [11]): 52.7%
- IC50 (HeLa [12]): 4.3 µg/mL (≈ 9.72 µM)
- Activity (HeLa [13]): inactive
- Activity (HeLa [14]): 22.9%
- Activity (HeLa [15]): Active
- Ratio (HeLa [16]): 1.44
- Activity (HeLa [17]): 41.2%
- Activity (HeLa [18]): 41.6%
- Activity (HeLa [19]): 26.1%
- Ratio (HeLa [20]): 1.71
- Activity (HeLa [21]): 15.3%
- Activity (HeLa [22]): 5.5%
- Activity (HeLa [23]): 16%
- Activity (HeLa [24]): Active
- Activity (DLD-1 [25]): 54%
- Activity (HeLa [26]): Active
- Activity (HeLa [27]): 16.6%
- Activity (HeLa [28]): Dose-dependent effect
- Activity (HeLa [29]): 2.2%
- Activity (HeLa [30]): 15.6%
- Activity (HeLa [31]): tde
- Activity (HeLa [32]): 52.1%
- Activity (HeLa [33]): 10.9%
- Activity (HeLa [34]): 10.3%
- Activity (HeLa [35]): 4%
- Ratio (HeLa [36]): 0.68
- Activity (HeLa [37]): 31.5%
